Data as given in paper PMC3913620, “Preclinical Evaluation of the Novel, Orally Bioavailable Selective Inhibitor of Nuclear Export (SINE) KPT-335 in Spontaneous Canine Cancer: Results of a Phase I Study” (PLoS ONE, 2014).
Several values for one entry are separate records, joined by “and”; a condition that tells them apart may be missing. Equal entries are not always repeated.

What was measured:
dogs with NHL = experiment: Dose expansion study, tumor response; assay type: in vivo; settings: 1.5 mg/kg Monday/Wednesday/Friday
Procedure: Tumor assessments were completed prior to study entry, and days 7, 14, 21, and 28. For dogs that continued beyond 4 weeks, response assessments were performed every 2 weeks thereafter, or at the time of suspected tumor progression. Responses were assessed by the investigator according to pre-defined protocol criteria. The response in dogs with assessable disease was performed by clinical examination, ultrasonography, or thoracic radiography. Many lesions were not amenable for quantitative radiographic imaging, but were followed either by serial clinical examination (superficial lesions; palpable lymph nodes) or by ultrasonography (abdominal lymph nodes). Thoracic lesions were assessed by thoracic radiography.
The response in dogs with measurable disease was judged by the investigator on the basis of Response Evaluation Criteria for Peripheral Nodal Lymphoma in dogs (v1.0). A complete response (CR) was defined as disappearance of all disease on two measurements separated by a minimum period of 3 weeks. A partial response (PR) was defined as greater than 30% reduction in the sum of the longest diameter of the target lesions documented by two assessments separated by at least 3 weeks. An increase of >20% in the size of all measurable tumor areas as measured by the sum of longest diameters of the target lesions taken as reference the smallest sum since initiation of therapy, or the appearance of any new lesion(s) would qualify as progressive disease (PD). […] Dogs who had no evidence of tumor progression and who had not experienced any unacceptable toxicity were eligible for extended treatment cycles. Dose escalation from twice per week administration to three times per week administration in an individual dog was permitted if the dog was tolerating therapy.

OCI-Ly10 DLBCL cells = experiment: MTS cell viability assay, OCI-Ly10; assay type: cell-based, human; settings: Homo sapiens, OCI-Ly10, 72 hours, read-out: IC50 (± S.D.), OCI-Ly10
Procedure: (§1) Cryopreserved tumor cells obtained from sterile lymph node biopsy samples from dogs with diffuse large B cell lymphoma (DLBCL) were cultured with 100 ng/mL of megaCD40L (Enzo Life Science, Plymouth Meeting, PA) as previously described, [27]. The human T-cell leukemia cell line, Jurkat, was from the American Type Culture Collection (ATCC, Manassas, VA) and cultured in RPMI1640 medium (Gibco/BRL, Grand Island, NY) containing 10% fetal bovine serum (FBS; Atlas Biologicals, Fort Collins, CO), 2-mercaptoethanol (Gibco/BRL), HEPES, L-glutamine, sodium pyruvate (Mediatech Inc., Manassas, VA), non-essential amino acids (Sigma Aldrich, St. Louis, MO), and Primocin (Invivogen, San Diego, CA). […]
(§2) Cell viability for lymphoid lines was determined by the MTS (3-(4, 5-dimethylthiazol-2-yl)-5-(3-carboxymethoxyphenyl)-2-(4-sulfophenyl)-2H-tetrazolium) assay using CellTiter 96® AQueous One Solution Cell Proliferation Assay Kit (Promega, Madison, WI). […] After 72 hours, 20 µL of MTS solution was added to each well and cells were incubated for another 4 hours before measuring absorbance at 490 nm using a Wallac Victor 1420 Multilabel Counter (Perkin Elmer, Waltham, MA). The IC50 of SINE was calculated using Prism 6 software (GraphPad Software, Inc., La Jolla, CA).

[1] = system: primary canine DLBCL cells; experiment: Annexin V apoptosis assay (flow cytometry), primary canine DLBCL; assay type: cell-based; settings: primary canine DLBCL (sample #1), 100 nM, 24 hours
Procedure: Jurkat cells and primary canine DLBCL cells were cultured for 24 hours in the presence of 100 nM KPT-335 or dimethyl sulfoxide (DMSO). Cells were stained with Annexin V (eBiosciences, San Diego, CA) according to the manufacturer’s instruction. Flow cytometry was performed using a BD LSRII flow cytometer (BD Immunocytometry Systems, San Jose, CA) and results were analyzed using FlowJo software (Tree Star, Ashland, OR).

CLBL1 cells = experiment: Annexin V apoptosis assay (flow cytometry), CLBL1; assay type: cell-based, canine; settings: CLBL1, 100 nM, 24 hours
[2] = Owner-assessed quality of life questionnaire; assay type: in vivo, dogs
Text: A tool to assess quality of life in dogs with cancer during treatment has been previously published. This was used to assess owner perceived changes in dogs undergoing KPT-335 treatment during both the dose escalation and dose expansion studies. An overall quality of life (QOL) score was created based on answers to the questions on the quality of life questionnaire. The scores from each question were summed resulting in an overall quality of life score which could range from 23 to 115. Trends in Quality of Life (QOL) during the study were examined using linear mixed models containing fixed effects of time and an autoregressive correlation structure for the random errors. Wald tests were used to test for a significant change in QOL with degrees of freedom calculated using the Kenward-Roger method. Measurements obtained after 90 days were not included in the analysis for the dose escalation study and measurements after 70 days were not included in the analysis of the dose expansion data due to few data points after those time points.

[3] = dog, in vivo
[4] = system: canine melanoma cell lines; experiment: Proliferation and viability of canine melanoma cell lines (data not shown); assay type: cell-based; settings: Canis lupus familiaris, read-out: IC50 concentrations, canine melanoma cell lines
CLBL1 DLBCL cells = experiment: MTS cell viability assay, CLBL1; assay type: cell-based, canine; settings: Canis lupus familiaris, CLBL-1, 72 hours, read-out: IC50 (± S.D.), CLBL1
Procedure: as §1, §2

Oral bioavailability = assay type: in vivo; settings: normal laboratory dogs

Compound: O=C(/C=C\n1cnc(-c2cc(C(F)(F)F)cc(C(F)(F)F)c2)n1)NNc1ccccn1 [KPT-335]
- CB rate (dogs with NHL): 67%
- TTP range, responders (dogs with NHL): 35 to 354 days
- clinical benefit (CB), dogs (dogs with NHL): 4/6
- dogs with SD for longer than 28 days (dogs with NHL): 4
- median TTP, responders (dogs with NHL): 83 days
- duration of PR, individual dogs (dogs with NHL; 1.5 mg/kg): 35 days and 354 days
- TTP range, all dogs (dogs with NHL; 6 dogs with NHL): 13 to 354 days
- median TTP, all dogs (dogs with NHL; 6 dogs with NHL): 55 days
- IC50 (OCI-Ly10 DLBCL cells): 41.8 ± 21 nM
- apoptotic cells (Annexin V+ cells) compared to mock treated cells [1]: increased apoptotic cells
- apoptotic cells (Annexin V+ cells) compared to mock treated cells (CLBL1 cells): increased apoptotic cells
- overall quality of life ([2]; dose escalation study, p = 0.64): did not change significantly
- overall quality of life ([2]; dose expansion study, p = 0.47): did not change significantly
- tolerable doses [3]: below 3 mg/kg
- IC50 [4]: 95 to 290 nM
- IC50 (CLBL1 DLBCL cells): 8.5 ± 4.1 nM
- oral bioavailability (Oral bioavailability): excellent oral bioavailability
